Test results taken from paper PMC9849758, “Chemically diverse activity-based probes with unexpected inhibitory mechanisms targeting trypsin-like serine proteases” (Frontiers in Chemistry, 2023).
Structures can show the parent of a compound that is named as a salt.

How the values were obtained:
Format in all cases: biochemical
[1] = biological target: T1, Cathepsin G (cathepsin G human neutrophil) (Homo sapiens, UniProt P08311); assay: IC50 determination, spectrophotometric protease assay
T1 construct: Cathepsin G (cathepsin G human neutrophil, Sigma-Aldrich); purchased Sigma-Aldrich; host or cells: human neutrophil
T1 sequence (P08311 21-255): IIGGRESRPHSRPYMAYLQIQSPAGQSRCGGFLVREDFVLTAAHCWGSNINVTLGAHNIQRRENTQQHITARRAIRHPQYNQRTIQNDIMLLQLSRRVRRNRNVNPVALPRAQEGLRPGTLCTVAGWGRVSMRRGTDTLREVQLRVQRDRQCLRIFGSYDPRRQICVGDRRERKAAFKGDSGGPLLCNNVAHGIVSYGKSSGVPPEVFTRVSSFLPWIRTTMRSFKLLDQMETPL
Method: (§1) The IC50 values were determined using a spectrophotometric assay. All the experiments were conducted in duplicate. The readout consisted of evaluating the protease-mediated release of the chromophore para-nitroaniline (pNA) or fluorophore 7-amino-4-methyl coumarin (AMC) moieties from the respective substrates. Enzymatic activity was measured for 30 min at 37°C. All compounds were initially screened at three concentrations (10, 1, and .1 μM) to estimate the range of the IC50 value. Those which were able to reduce protease activity by at least 50% at a concentration of 10 μM were submitted to an exact IC50 determination. […] A third independent experiment was performed when the standard deviation of the two independent experiments was higher than […]. IC50 values were obtained by fitting the data with the four-parameter logistics equation using GraphPad Prism 9.
(§2) The conditions for each protease are described as follows, the concentration of substrate used was at the corresponding Km.

[2] = biological target: T2, Thrombin (recombinant thrombin) (Homo sapiens, UniProt P00734); assay: as above
T2 construct: purchased R&D
Method: as §1, §2

[3] = biological target: T3, uPA (recombinant urokinase plasminogen activator) (Homo sapiens, UniProt P00749); assay: as above
T3 construct: purchased HYPHEN BioMed
Method: as §1, §2

[4] = biological target: T4, β-tryptase (recombinant tryptase β-2) (Homo sapiens, UniProt P20231); assay: as above
T4 construct: purchased EnzoLife Sciences
T4 sequence (P20231 31-275): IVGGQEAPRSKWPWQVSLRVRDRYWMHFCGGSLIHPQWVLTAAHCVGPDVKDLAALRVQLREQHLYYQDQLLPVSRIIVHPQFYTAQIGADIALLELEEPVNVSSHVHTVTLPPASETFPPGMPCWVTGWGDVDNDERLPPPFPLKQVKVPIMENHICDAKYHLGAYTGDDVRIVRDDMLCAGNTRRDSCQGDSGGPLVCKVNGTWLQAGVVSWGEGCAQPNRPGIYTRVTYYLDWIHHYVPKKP
Method: as §1, §2

[5] = biological target: T5, Trypsin-3 (recombinant trypsin-3) (Homo sapiens, UniProt P35030); assay: as above
T5 construct: purchased R&D
T5 sequence (P35030 1-304): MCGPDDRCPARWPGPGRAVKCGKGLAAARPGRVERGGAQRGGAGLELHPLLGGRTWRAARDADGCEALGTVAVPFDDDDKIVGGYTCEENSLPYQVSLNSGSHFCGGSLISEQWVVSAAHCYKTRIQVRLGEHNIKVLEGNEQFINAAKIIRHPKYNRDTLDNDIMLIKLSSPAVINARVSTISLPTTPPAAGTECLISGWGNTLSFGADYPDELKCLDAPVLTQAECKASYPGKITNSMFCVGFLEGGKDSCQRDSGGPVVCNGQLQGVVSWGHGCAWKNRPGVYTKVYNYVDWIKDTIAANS
Method: as §1, §2

[6] = biological target: T6, TLCK-treated pancreatic bovine chymotrypsin (Bos taurus, UniProt P00766); assay: as above
T6 construct: TLCK-treated pancreatic bovine chymotrypsin (Sigma-Aldrich); purchased Sigma-Aldrich; host or cells: bovine pancreas
Method: as §1, §2

CatG = biological target: T7, CatG (Homo sapiens, UniProt P08311); assay: Jump dilution, determination of inhibition type; design: Cathepsin G (cathepsin G human neutrophil, Sigma-Aldrich); purchased Sigma-Aldrich; conditions: inhibitor at 10 times IC50, 15 min, diluted 10-fold or 100-fold; Rev./Irrev.
T7 sequence (P08311 21-255): T1 sequence (P08311 21-255)
Method: The dissociation of the enzyme-inhibitor complex was monitored by substrate hydrolysis over time ([Joossens et al., 2006]).
Because ABPs are designed to be irreversible serine protease inhibitors, the IC50 is exclusively used as a first discriminatory evaluation. When an inhibitor is irreversible, its IC50 value not only depends on the substrate and enzyme concentration but also on the time of incubation with the enzyme before the reaction is started by adding the substrate. […] The progress curve in the presence of an irreversible inhibitor will show final velocities equal to zero (Figure 6C). In contrast, for a reversible inhibitor, progress curves have a non-zero final steady-state velocity (Figure 6A) ([McWhirter, 2021]). To corroborate the inhibitory mechanism of the compounds, jump-dilution assays were performed. These use an inhibitor concentration of 10-fold the IC50 for the incubation, and a posteriori, the reaction mixture is diluted 10-fold or 100-fold before adding the substrate. In the case of an irreversible inhibitor, enzymatic activity is not regained (Figure 6D), whereas, in the case of a reversible compound, a slow release of the inhibitor and a gradual increase of the enzymatic activity rate is observed (Figure 6B) ([Copeland, 2013]; [McWhirter, 2021]). The jump-dilution assays confirmed the behavior described by the progress curves.
2.2.2 Jump dilution results
Supplementary Table 2. Jump dilution of selected alkyne and desthiobiotin probes against a panel of trypsin-like serine proteases. […]
# R R DtBa 3 tryptase Thrombin uPA CatG
32b H Alk Irrev. Irrev. Rev. Irrev. Rev.
45b DtB Irrev. Irrev. Rev. N.D. N.D.
33b Alk Irrev. Irrev. Rev. Irrev. Rev.
46b Cl DtB Irrev. Irrev. Rev. N.D. N.D.
34b H Alk Rev. Rev. Rev. Irrev. Rev.
50b DtB Rev. Rev. Rev. Irrev. Rev.
35b Alk Rev. Rev. Rev. Irrev. Rev.
52b NHCOMe DtB Rev. Rev. Rev. Irrev. Rev.
36b Alk Rev. Rev. Rev. Irrev. Rev.
54b Cl DtB Rev. Rev. Rev. Irrev. Rev.
37b Alk Irrev. Irrev. N.D. Irrev. Irrev.
55b H DtB Irrev. Irrev. N.D. Irrev. Irrev.
38b Alk Irrev. Irrev. N.D. Irrev. Irrev.
56b NHCOMe DtB Irrev. Irrev. N.D. Irrev. Irrev.
39b Alk Irrev. Irrev. N.D. Irrev. Rev.
57b Cl DtB Irrev. Irrev. N.D. Irrev. Rev.
41b H Alk Irrev. Irrev. Irrev. N.D. N.D.
31b Pro-Lys H Alk Irrev. Irrev. Irrev. Irrev. N.D. a Alk: ABP precursor bearing an alkyne; DtB: desthiobiotin probe b Panel of serine proteases abbreviations: urokinase plasminogen activator (uPA), cathepsin G (catG) N.D.: IC50 is greater than 10µM, and jump dilution was not performed
2.2.3 Progress curves and Jump dilution experiments
Kinetic assays were performed in the following manner. The inhibitor was mixed with the substrate, and the buffer solution with the enzyme was added at the time zero. The progress curves show the release of para-nitroaniline (pNA) or 7-amino-4-methyl coumarin (AMC) as a function of time.
To monitor the dissociation of the inhibitor-enzyme, aliquots of the enzyme were incubated at 37 °C without and with the inhibitor at a concentration 10 times higher than its IC 50. The enzyme […]
min, the aliquots were diluted 10-fold or 100-fold into the substrate concentration and assay buffer used for the IC50 determination. The dissociation of the enzyme-inhibitor complex was monitored by substrate hydrolysis over time. Blue lines represent the control where no inhibitor was present. Pink lines represent the assay with inhibitor.

| SMILES | IC50 [1] [µM] | IC50 [2] [µM] | IC50 [3] [µM] | IC50 [4] [µM] | IC50 [5] [µM] | IC50 [6] [µM] | CatG jump dilution result (CatG) |
| --- | --- | --- | --- | --- | --- | --- | --- |
| C[C@@H]1NC(=O)N[C@@H]1CCCCCC(=O)NCCOCCOCCOCCn1cc(CCCOC(=O)NC(Cc2ccc(NC(=N)N)cc2)P(=O)(Oc2ccccc2)Oc2ccccc2)nn1 (stereo partly drawn) [50b, 3-(1-(18-((4R,5S)-5-methyl-2-oxoimidazolidin-4-yl)-13-oxo-3,6,9-trioxa-12-azaoctadecyl)-1H-1,2,3-triazol-4-yl)propyl (1-(diphenoxyphosphoryl)-2-(4-guanidinophenyl)ethyl)carbamate trifluoroacetate salt] | 0.36 ± 0.004 | 3.52 ± 0.39 | 0.02 ± 0.0001 | 0.36 ± 0.07 | 0.03 ± 0.01 | 1.64 ± 0.5 | Rev. |
| C#CCCCOC(=O)NC(Cc1ccc(NC(=N)N)cc1)P(=O)(Oc1ccc(Cl)cc1)Oc1ccc(Cl)cc1 (stereo not drawn) [36b] | 0.34 ± 0.008 | 1.77 ± 0.05 | 0.005 ± 0.0003 | 0.07 ± 0.02 | < 0.001 | 3.23 ± 1.21 | Rev. |
| C#CCCCOC(=O)NC(CCCNC(=N)N)P(=O)(Oc1ccccc1)Oc1ccccc1 (stereo not drawn) [32b] | 7.57 ± 0.58 | 0.85 ± 0.13 | 4.8 ± 0.08 | 3.74 ± 0.53 | 0.03 ± 0.007 | > 10 | Rev. |
